In ChEMBL document CHEMBL4842345, “Design, synthesis and biological evaluation of tanshinone IIA-based analogues: Potent inhibitors of microtubule formation and angiogenesis” (Eur J Med Chem, 2021):
≈ marks a conversion by molar mass, not a printed value. Calls of active or inactive are those of the source. No cut-off for these calls is given here.

Key:
[1] = tested on: HUVEC; experiment: Antivascular activity against HUVEC cells assessed as reduction in number of branching points measured after 6 hrs by imaging analysis; type: functional, cell-based; conditions: Homo sapiens, dose 0.25-1 µM
[2] = tested on: A549; experiment: Induction of apoptosis in human A549 cells assessed as late apoptotic cells at 10 uM measured after 48 hrs by Annexin V-FITC/PI staining based flow cytometry analysis (Rvb= 1.47%); type: functional
[3] = organism: Danio rerio; experiment: Antiangiogenic activity in transgenic Tg(flk:EGFP) zebra fish embryos assessed as disruption of intersegmental vessels formation measured at 30 hrs post fertilization by confocal fluorescence microscopy analysis; type: functional, organism-based
[4] = tested on: A549; experiment: Induction of apoptosis in human A549 cells assessed as activation of executioner caspase-3 at 2.5 to 10 uM measured after 48 hrs by western blot analysis; type: functional, cell-based; conditions: dose 2.5-10 µM
[5] = target: T1, Tubulin (Homo sapiens) (UniProt P68371+Q9H4B7+P0DPH7+P68366+Q13509+Q71U36+P04350+Q3ZCM7+P07437+P68363+Q9BQE3+Q6PEY2+Q13885+Q9BVA1+Q9BUF5); experiment: Displacement of [3H]colchicine binding to tubulin (unknown origin); type: protein-complex assay
[6] = tested on: A549; experiment: Induction of apoptosis in human A549 cells assessed as cleavage of PARP at 2.5 to 10 uM measured after 48 hrs by western blot analysis; type: functional, cell-based; conditions: dose 2.5-10 µM
[7] = tested on: A549; experiment: Induction of cell cycle arrest in human A549 cells assessed as accumulation of cells at S phase at 5 uM measured after 48 hrs by flow cytometry analysis (Rvb= 24.5%); type: functional
[8] = tested on: A549; experiment: Induction of cell cycle arrest in human A549 cells assessed as accumulation of cells at S phase at 10 uM measured after 48 hrs by flow cytometry analysis (Rvb= 24.5%); type: functional
[9] = Kinetic solubility of the compound at pH 2 by nephelometry; type: physicochemical; conditions: buffer, read-out: Kinetic_solubility
[10] = tested on: A549; experiment: Induction of cell cycle arrest in human A549 cells assessed as accumulation of cells at G1 phase at 2.5 uM measured after 48 hrs by flow cytometry analysis (Rvb= 60.29%); type: functional
[11] = tested on: HepG2; experiment: Antiproliferative activity against human HepG2 cells assessed as reduction in cell viability measured after 72 hrs by MTT assay; type: functional, cell-based; conditions: HepG2, 72 h
[12] = tested on: HUVEC; experiment: Antivascular activity against HUVEC cells assessed as inhibition of capillary-like tubule formation measured after 6 hrs by matrigel matrix based microscopic analysis; type: functional, cell-based; conditions: Homo sapiens, dose 0.25-1 µM
[13] = tested on: A549; experiment: Induction of apoptosis in human A549 cells assessed as live cells at 5 uM measured after 48 hrs by Annexin V-FITC/PI staining based flow cytometry analysis (Rvb= 97.1%); type: functional
[14] = tested on: A549; experiment: Induction of apoptosis in human A549 cells assessed as late apoptotic cells at 5 uM measured after 48 hrs by Annexin V-FITC/PI staining based flow cytometry analysis (Rvb= 1.47%); type: functional
[15] = tested on: HeLa; experiment: Antiproliferative activity against human HeLa cells assessed as reduction in cell viability measured after 72 hrs by MTT assay; type: functional, cell-based
[16] = tested on: A549; experiment: Induction of apoptosis in human A549 cells assessed as dead cells at 5 uM measured after 48 hrs by Annexin V-FITC/PI staining based flow cytometry analysis (Rvb= 0.67%); type: functional
[17] = Kinetic solubility of the compound at pH 6.5 by nephelometry; type: physicochemical; conditions: buffer, read-out: Kinetic_solubility
[18] = tested on: A549; experiment: Inhibition of cell migration in human A549 cells assessed as decrease in wound healing rate at 0.5 to 2 uM measured after 48 hrs by wound healing assay; type: functional, cell-based; conditions: dose 0.5-2 µM
[19] = tested on: HUVEC; experiment: Antivascular activity against HUVEC cells assessed as reduction in area covered by HUVECs measured after 6 hrs by imaging analysis; type: functional, cell-based; conditions: Homo sapiens, dose 0.25-1 µM
[20] = tested on: U-937; experiment: Antiproliferative activity against human U-937 cells assessed as reduction in cell viability measured after 72 hrs by MTT assay; type: functional, cell-based; conditions: U-937, 72 h
[21] = tested on: A549; experiment: Induction of apoptosis in human A549 cells assessed as activation of the initiator caspase-9 measured after 48 hrs by western blot analysis; type: functional, cell-based
[22] = organism: Danio rerio; experiment: Antiangiogenic activity in transgenic Tg(flk:EGFP) zebra fish embryos assessed as reduction in number of intersegmental vessels measured at 30 hrs post fertilization by confocal fluorescence microscopy analysis; type: functional, organism-based; conditions: dose 1-4 µM
[23] = tested on: A549; experiment: Induction of apoptosis in human A549 cells assessed as early apoptotic cells at 10 uM measured after 48 hrs by Annexin V-FITC/PI staining based flow cytometry analysis (Rvb= 0.72%); type: functional
[24] = tested on: A549; experiment: Induction of cell cycle arrest in human A549 cells assessed as increase in number of cells accumulation at G2/M phase at 5 uM measured after 48 hrs by flow cytometry analysis (Rvb= 16.72%); type: functional
[25] = tested on: A549; experiment: Induction of cell cycle arrest in human A549 cells assessed as accumulation of cells at S phase at 2.5 uM measured after 48 hrs by flow cytometry analysis (Rvb= 24.5%); type: functional
[26] = target: T1, Tubulin (Homo sapiens); experiment: Induction of microtubule distruption in human A549 cells assessed as reduction in number of living cells at 2.5 to 10 uM measured after 48 hrs by immunofluorescence based laser scanning confocal microscopic analysis; type: cell-based; conditions: dose 2.5-10 µM
[27] = tested on: A549; experiment: Antiinvasive activity in human A549 cells assessed as decrease in number of migrated A549 cells at 0.5 to 2 uM measured after 48 hrs by crystal violet staining based transwell assay; type: functional, cell-based; conditions: dose 0.5-2 µM
[28] = tested on: HUVEC; experiment: Antivascular activity against HUVEC cells assessed as segment length measured after 6 hrs by imaging analysis; type: functional, cell-based; conditions: Homo sapiens, dose 0.25-1 µM
[29] = tested on: A549; experiment: Antiproliferative activity against human A549 cells assessed as decrease in DNA synthesis at 2.5 to 10 uM by Edu incorporation assay; type: functional, cell-based; conditions: dose 2.5-10 µM
[30] = tested on: A549; experiment: Induction of apoptosis in human A549 cells assessed as live cells at 10 uM measured after 48 hrs by Annexin V-FITC/PI staining based flow cytometry analysis (Rvb= 97.1%); type: functional
[31] = tested on: MCF7; experiment: Antiproliferative activity against human MCF7 cells assessed as reduction in cell viability measured after 72 hrs by MTT assay; type: functional, cell-based; conditions: MCF7, 72 h
[32] = target: T1, Tubulin (Homo sapiens); experiment: Induction of microtubule distruption in human A549 cells assessed as spindle shaped microtubule structure at 2.5 to 10 uM measured after 48 hrs by immunofluorescence based laser scanning confocal microscopic analysis; type: cell-based; conditions: dose 2.5-10 µM
[33] = tested on: HUVEC; experiment: Inhibition of cell migration in HUVEC cells assessed as decrease in number of migrated endothelial cells at 0.25 to 1 uM measured after 48 hrs by crystal violet staining based transwell assay; type: functional; conditions: Homo sapiens, dose 0.25-1 µM
[34] = tested on: A549; experiment: Induction of cell cycle arrest in human A549 cells assessed as increase in number of cells accumulation at G2/M phase at 2.5 uM measured after 48 hrs by flow cytometry analysis (Rvb= 16.72%); type: functional
[35] = tested on: A549; experiment: Induction of apoptosis in human A549 cells assessed as live cells at 2.5 uM measured after 48 hrs by Annexin V-FITC/PI staining based flow cytometry analysis (Rvb= 97.1%); type: functional
[36] = tested on: A549; experiment: Induction of apoptosis in human A549 cells assessed as dead cells at 2.5 uM measured after 48 hrs by Annexin V-FITC/PI staining based flow cytometry analysis (Rvb= 0.67%); type: functional
[37] = tested on: HUVEC; experiment: Antiinvasive activity in HUVEC cells assessed as decrease in cell invasion at 0.25 to 1 uM measured after 48 hrs by crystal violet staining based transwell assay; type: functional; conditions: Homo sapiens, dose 0.25-1 µM

With `COc1ccc2c(c1)-c1occ(C)c1C(=O)C2=O` the Activity [1] was “Dose-Dependent Effect”, the Activity [2] was 8.19% and the Activity [3] was “Dose-Dependent Effect”. The Activity [4] was “Active”, the Activity [5] was “Active” and the Activity [6] was “Active”. It also gave an Activity [7] of 25.26%, an Activity [8] of 13.48% and a solubility kinetic [9] of 250 µg/mL (≈ 1030 µM). The Activity [10] was 61.93%, the IC50 [11] was 2000 nM and the Activity [12] was “Active”. For the same compound, the Activity [13] was 82.8%, the Activity [14] was 5.58% and the IC50 [15] was 280 nM. The Activity [16] was 1.28%, the solubility kinetic [17] was 405 µg/mL (≈ 1670 µM) and the inhibition [18] was “Active”. The Activity [19] was “Dose-Dependent Effect”, the IC50 [20] was 2770 nM and the Activity [21] was “Dose-Dependent Effect”. The Activity [22] was “Dose-Dependent Effect”, the Activity [23] was 80.2% and the Activity [24] was 20%. The Activity [25] was 21.27%, the Activity [26] was “Active” and the Activity [27] was “Active”. The Activity [28] was “Dose-Dependent Effect”, the Activity [29] was “Active” and the Activity [30] was 11.1%. The IC50 [31] was 3160 nM, the Activity [32] was “inactive” and the inhibition [33] was “Active”. It also gave an Activity [34] of 17.41%, an Activity [35] of 94.5% and an Activity [36] of 0.68%. The Activity [37] was “Active”.
